Test results reported in the Kinase Knowledgebase extract (Sharma et al. 2016).

Target: CDK2 (human) (UniProt P24941)
Assay: Enzyme Assay

| Structure (SMILES) | IC50 |
| --- | --- |
| N[C@H]1CC[C@H](Nc2nc(NCc3cccs3)c3ncn(C4CCCC4)c3n2)CC1 | 56 nM |
| N[C@H]1CC[C@H](Nc2nc(NNCC(F)(F)F)c3ncn(C4CCCC4)c3n2)CC1 | 58 nM |
| CC(C)n1cnc2c(NCC3CC3)nc(N[C@H]3CC[C@H](N)CC3)nc21 | 141 nM |
| N[C@H]1CC[C@H](Nc2nc(NCCCO)c3ncn(C4CCCC4)c3n2)CC1 | 18 nM |
| CCCCCNc1nc(N[C@H]2CC[C@H](N)CC2)nc2c1ncn2C1CCCC1 | 53 nM |
| N[C@H]1CC[C@H](Nc2nc(NCCc3ccncc3)c3ncn(C4CCCC4)c3n2)CC1 | 69 nM |
| CCCCNc1nc(N[C@H]2CC[C@H](N)CC2)nc2c1ncn2C1CCCC1 | 23 nM |
| CC(C)n1cnc2c(NCCCC(=O)c3ncc[nH]3)nc(N[C@H]3CC[C@H](N)CC3)nc21 | 840 nM |
| N[C@H]1CC[C@H](Nc2nc(NCCCCc3ccccc3)c3ncn(C4CCCC4)c3n2)CC1 | 59 nM |
| CCCCCCCCNc1nc(N[C@H]2CC[C@H](N)CC2)nc2c1ncn2C1CCCC1 | 360 nM |
| CCNc1nc(N[C@H]2CC[C@H](N)CC2)nc2c1ncn2C1CCCC1 | 13 nM |
| N[C@H]1CC[C@H](Nc2nc(NCCCN3CCOCC3)c3ncn(C4CCCC4)c3n2)CC1 | 116 nM |
